Values quoted from earlier work in patent US12564599B2, “Pharmaceutical composition comprising tetrahydrocannabivarin for the prevention and treatment of overweight” (CepVentures International Corporation, priority 2019, dated 2026).

Conditions: over a 6 month or a 1 year period

CC(C)CC(N(C)C)C1(c2ccc(Cl)cc2)CCC1 (stereo not shown) [Sibutramine]
reduces body weight: about 10%
